Measurements as given in patent US12385042B2, “Cell-penetrating peptides” (VECTIOPEP OÜ, priority 2019, dated 2025).
Where a SMILES comes first, the peptide text is derived from it. Bridges are numbered along the chain shown (N, C = ends). Roman numbers before positions name the chains, in order. [ ]: non-standard residue; d: D form. The star is where a group is joined. Arachidoyl = CCCCCCCCCCCCCCCCCCCC(=O)*; Stearoyl = CCCCCCCCCCCCCCCCCC(=O)*; Orn = NCCC[C@H](N)C(=O)O

Experiments:
[1] = tested on: CHO stably expressing green fluorescent protein (GFP); test: GFP gene downregulation by CPP/siGFP complexes (lysate fluorescence, FACS, confocal); assay type: cell-based; details: for cells with downregulated reporter gene (GFP signal below threshold), FACS: CHO-GFP, CPP/siGFP complexes; for downregulation of GFP (average, cell lysate fluorescence): siGFP 100 nM
Experimental: (§1) For assessing the siRNA mediated RNAi, CHO-GFP or U87-luc2 cells (5×10^5 cells per well) were seeded on a 24-well plate a day prior to the experiment and grown in serum containing media. On experiment day, prior to adding pre-formed complexes ( 1/10th of the final volume per well), media was replaced with fresh serum containing medium.
(§2) For complex formation, peptide was mixed with luc2 siRNA (sense 5′-[…]-3′ (SEQ ID NO:7), antisense 5′-[…] 3′ (SEQ ID NO:8), Metabion, Germany) or with siRNA against GFP (5′-[…] (SEQ ID NO:9), 3′-[…] (SEQ ID NO:10)) in mQ water (pH 5.3-6.3) using peptide to siRNA molar ratios (MR is the ratio of peptide to siRNA) […] and incubated at RT for 1 h. For siLuc2, the final concentration in media was 25 nM and for siGFP 100 nM. Cells were co-incubated with complexes for 4 h (37° C., 5% CO2), thereafter fresh serum containing media was added and followed by further incubation (20 h for siLuc2 or 44 h for siGFP complexes). Luciferase gene downregulation was measured from cell lysates with Promega luciferase assay system (Promega, Sweden) in combination with GLOMAX 96 microplate luminometer equipped with GLOMAX 1.9.2 software (Promega). GFP was measured after treatment from cell lysates on black 96-well plates by measuring total fluorescence (Symergy MX, BioTek Instruments, USA equipped with Gen5 1.10 software). The results were normalized to the protein content of each sample (DC Protein Assay, BioRad, USA).
For flow cytometry analysis (FACS) analysis CHO-GFP cells were seeded and treated as described previously. After incubation, cells were washed with 1× PBS and detached from plates with trypsin-EDTA (0.25%), and re-suspended in PBS supplemented with FBS (5%) and transferred to transparent U-bottom 96-well plates. FACS was carried out with BD LSR II flow cytometer (BD Biosciences, San Jose, CA, USA) equipped with a 488 nm argon laser. Population of viable cells was determined from scatter plot: forward scattered plot (FSC) vs. side scattered light (SSC) plot. A minimum of 10,000 events from the viable cell population per sample were analyzed using BD FACS Diva software. Results are shown as the population with GFP signal lower than that of 0.1% of untreated cells.
For confocal microscopy 2×10^5 cells per chamber were seeded on NUNC 8-chamber plates. After treatment with complexes (25 ul of pre-formed CPP/siRNA complexes added to cells in 225 ul serum containing media), incubated (48 h) and GFP florescence images of cells were captured using confocal microscope Zeiss LSM 710 and excitation at 488 nm (493-616 filter).

[2] = tested on: U87 MG-luc2 human glioma cells, stably expressing luc2; test: Luciferase gene downregulation by CPP/siRNA (siLuc2) complexes; assay type: cell-based; details: for Red (%) (reduction, based on remaining luminescence on U87 cells post-treatment): siRNA against luciferase
Experimental: as §1, §2
Luciferase activity was determined as described in previous paragraph.
For determination of pH dependency on the transfection efficiency, complexes were formed at MR30, incubated and diluted before addition to cells to obtain siRNA final concentration 10 nM in transfection media. HEPES buffer supplemented with 10% FBS was used as transfection media. Complexes were co-incubated with cells for 4 h and then media was replaced with cell growth media. After further 20 h incubation cells were lysed and analyzed as described previously.
The experiment was carried out in serum containing media (10% FBS). CPP/siRNA complexes were formed at different molar ratios with siRNA concentration kept constant (50 nM in transfection media). Luminescence from luciferin-luciferase reaction was measured at 24 hours post-treatment from cell lysate. Results were normalized to protein content and luminescence values from untreated cells (100%).

U87 cells = test: MTS toxicity assay; assay type: cell-based, human
Experimental: Cell proliferation was determined with the CellTiter 96® Aqueous Non-Radioactive Cell Proliferation Assay (MTS) (Promega Biotech AB, Sweden) according to the manufacturer's instructions. For this 1×10^5 U87 cells were seeded 1 day prior to experiment on transparent 96-well plates. On experiment day, media was replaced with 90 ul of fresh media and to the cells complexes formed at MR30 (both with 25 nM and 100 nM final siRNA concentrations) or free peptide at the range of 0.5-4 uM final concentrations were added. Cells were treated with complexes for 20 h. MTS was added according to the manufacturer's protocol. The absorbance of formazan product was measured at 490 nm with Tecan Sunrise microplate absorbance reader (Tecan Group Ltd, Switzerland) and percentage of viable cells was calculated using GraphPad Prism software 5.0 (Graphpad Software, CA, USA).

[3] = Fluorescent dye (PicoGreen) intercalation and heparin displacement assay of CPP/siRNA complexes; assay type: physicochemical; details: for accessibility of siRNA in complexes (dye intercalation): MR30, no heparin; for stability of complexes to heparin displacement (in words): complexes pre-formed at MR30
Experimental: Complexation of siRNA and CPPs was assessed by Quant-iT™ PicoGreen® (PG) (Thermo Fisher Scientific, USA) assay in mQ water. Complexes were prepared as described previously, following addition of diluted PG. For detection, complexes (⅕ of volume), water (3/5) and PG (1/5) working dilution was incubated for 5 minutes and fluorescence was measured by fluorimeter (λex=492 nm, λem=535 nm) (SynergyMx, BioTek). For heparin displacement, instead of water, heparin salt solution at different concentrations were used and complexes incubated at 37° C. for 30 min before addition of PG dilution. Complex formation was also confirmed by gel electrophoresis (details in section 2.11).

murine red blood cells = test: Membrane activity assay on murine red blood cells: hemolysis; assay type: cell-based, mouse; details: for hemolytic activity of free peptide (in words): up to 10 uM
Experimental: For evaluation of membrane activity of peptides, hemolysis assay was used. For this whole blood was collected from mouse (adult, BALB/c) saphenous vein into a heparinized collection tube. Blood was centrifuged (2300× g, 15 min) to separate cells (red blood cells-RBC) from the plasma. RBCs were washed according to following procedures.
RBCs were washed with 10 ml 0.9% NaCl saline and centrifuged (600× g, 15 min). Supernatant was discarded after each centrifugation. This was repeated at least 3 times. RBCs were re-suspended in 5 ml saline and distributed equally to tubes and centrifuged (600× g, 15 min). The cells were washed and re-suspended in 2× PBS with the required pH (pH 5.5-7.5). The hemoglobin content in stocks was measured after lysis of cells with equal volume of 0.1% Triton X100 supplemented with 5% glucose. The cell suspension was diluted accordingly for each pH value to obtain similar concentration range of hemoglobin in stocks. To each 100 ul of peptide solution 100 ul of 10% glucose was added, mixed, and equal volume (200 ul) of RBC in 2× PBS were added and gently mixed. Peptide solution with RBCs was incubated at 37° C. for 1 h with gentle mixing (max 300 rpm) after which samples were centrifuged to pellet intact cells from the solution. Hemoglobin from lysed cells was determined from each sample from the supernatant on transparent 96-well plates by measuring the absorbance at 540 nm.
Controls were incubated in similar manner as samples. As a non-hemolysis control mQ supplemented with glucose (0%) was used and for hemolytic control 0.1% TritonX-100 with glucose (100%) was used (cells are suspended in 2× PBS before addition). Final percent was calculated as follows: […]
For hemolytic concentration determination 2× PBS at pH 7.5 was used for incubation and 1× PBS at pH 7.5 was used for washing. Everything else is as described in previous paragraph.

Proteinase K = target: T1, Proteinase K (Parengyodontium album, UniProt P06873); test: Stability of CPP/siRNA complexes to degradation by Proteinase K; assay type: physicochemical; details: Proteinase K >14.4 U per well
T1 construct: purchased Thermo Scientific, USA
Experimental: To assess protection of siRNA from enzymatic degradation, after addition of PG dilution and initial measurement to set a starting point, Proteinase K (Thermo Scientific, USA) was added (>14 U/ml, 20 ul of mixture per well containing dilution of 120 ul of enzyme in 1 ml), co-incubated with complexes and fluorescence was measured over a 10 h period.

T1 sequence (P06873 106-384): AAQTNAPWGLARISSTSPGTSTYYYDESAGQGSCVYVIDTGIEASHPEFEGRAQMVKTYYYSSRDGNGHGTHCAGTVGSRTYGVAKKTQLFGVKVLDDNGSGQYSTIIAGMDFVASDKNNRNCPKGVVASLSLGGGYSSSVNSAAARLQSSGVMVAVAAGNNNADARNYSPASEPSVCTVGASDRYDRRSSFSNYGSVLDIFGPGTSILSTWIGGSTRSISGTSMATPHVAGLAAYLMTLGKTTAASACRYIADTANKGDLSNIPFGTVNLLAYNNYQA

## CCCCCCCCCCCCCCCCCC(=O)N[C@@H](Cc1c[nH]cn1)C(=O)N[C@@H](Cc1c[nH]cn1)C(=O)N[C@@H](Cc1c[nH]cn1)C(=O)N[C@@H](Cc1c[nH]cn1)C(=O)N[C@@H](Cc1c[nH]cn1)C(=O)N[C@@H](Cc1c[nH]cn1)C(=O)NCC(=O)NCCC[C@H](N)C(=O)N[C@H](C(=O)N[C@@H](CC(C)C)C(=O)N[C@@H](CC(C)C)C(=O)N[C@@H](CCCCN)C(=O)N[C@@H](C)C(=O)N[C@@H](CC(C)C)C(=O)N[C@@H](CCCCN)C(=O)N[C@@H](C)C(=O)N[C@@H](CC(C)C)C(=O)N[C@@H](C)C(=O)N[C@@H](CCCCN)C(=O)N[C@@H](C)C(=O)N[C@H](C(=O)N[C@@H](CC(C)C)C(N)=O)[C@@H](C)CC)[C@@H](C)CC [NF704] (I: H-[Orn]ILLKALKALAKAIL-NH2 / II: Stearoyl-HHHHHHG; amide I:1-II:C)
[1]
  cells with downregulated reporter gene (GFP signal below threshold), FACS: 40%
  downregulation of GFP (average, cell lysate fluorescence): lower efficiency than H6-C20
[2]; CPP/siRNA complexes
  Red (%) (reduction, based on remaining luminescence on U87 cells post-treatment): 82%
[2]; molar ratio 30 (MR30, peptide to siRNA), untreated cells 100%
  remaining reporter activity: 19%
U87 cells
  concentration at which free peptide is toxic to cells (MTS): 10 µM
[3]
  accessibility of siRNA in complexes (dye intercalation): low accessibility of siRNA
  stability of complexes to heparin displacement (in words): not as resistant to heparin displacement as H6^1-C20

## CCCCCCCCCCCCCCCCCCCC(=O)N[C@@H](Cc1c[nH]cn1)C(=O)N[C@@H](Cc1c[nH]cn1)C(=O)N[C@@H](Cc1c[nH]cn1)C(=O)N[C@@H](Cc1c[nH]cn1)C(=O)N[C@@H](Cc1c[nH]cn1)C(=O)N[C@@H](Cc1c[nH]cn1)C(=O)NCC(=O)NCCC[C@H](N)C(=O)N[C@H](C(=O)N[C@@H](CC(C)C)C(=O)N[C@@H](CC(C)C)C(=O)N[C@@H](CCCCN)C(=O)N[C@@H](C)C(=O)N[C@@H](CC(C)C)C(=O)N[C@@H](CCCCN)C(=O)N[C@@H](C)C(=O)N[C@@H](CC(C)C)C(=O)N[C@@H](C)C(=O)N[C@@H](CCCCN)C(=O)N[C@@H](C)C(=O)N[C@H](C(=O)N[C@@H](CC(C)C)C(N)=O)[C@@H](C)CC)[C@@H](C)CC [NF705] (I: H-[Orn]ILLKALKALAKAIL-NH2 / II: Arachidoyl-HHHHHHG; amide I:1-II:C)
[1]
  downregulation of GFP (average, cell lysate fluorescence): lower efficiency than H6-C20
Murine red blood cells
  hemolytic activity of free peptide (in words): significantly higher
Murine red blood cells; peptide 0.75 uM, buffer pH 5.5-7.5
  pH dependent hemolytic activity (in words): markedly hemolytic already at pH 7.5
[2]; CPP/siRNA complexes
  Red (%) (reduction, based on remaining luminescence on U87 cells post-treatment): 52%
Proteinase K
  stability of complexes to proteinase K (in words): formed the most stable complexes with siRNA resistant to proteinase K
[3]
  accessibility of siRNA in complexes (dye intercalation): low accessibility of siRNA
  stability of complexes to heparin displacement (in words): significantly higher stability to heparin displacement than NF70 peptide and even NF72 peptide

## CCCCCCCCCCCCCCCCCC(=O)N[C@@H](C)C(=O)NCC(=O)N[C@@H](Cc1ccc(O)cc1)C(=O)N[C@@H](CC(C)C)C(=O)N[C@@H](CC(C)C)C(=O)NCC(=O)N[C@@H](CCCCNC(=O)[C@H](CCCCNC(=O)[C@H](CCCCNC(=O)CCC(=O)NCCN(C)CCNc1ccnc2cc(C(F)(F)F)ccc12)NC(=O)CCC(=O)NCCN(C)CCNc1ccnc2cc(C(F)(F)F)ccc12)NC(=O)[C@H](CCCCNC(=O)CCC(=O)NCCN(C)CCNc1ccnc2cc(C(F)(F)F)ccc12)NC(=O)CCC(=O)NCCN(C)CCNc1ccnc2cc(C(F)(F)F)ccc12)C(=O)N[C@H](C(=O)N[C@@H](CC(N)=O)C(=O)N[C@@H](CC(C)C)C(=O)N[C@@H](CCCCN)C(=O)N[C@@H](C)C(=O)N[C@@H](CC(C)C)C(=O)N[C@@H](C)C(=O)N[C@@H](C)C(=O)N[C@@H](CC(C)C)C(=O)N[C@@H](C)C(=O)N[C@@H](CCCCN)C(=O)N[C@@H](CCCCN)C(=O)N[C@H](C(=O)N[C@@H](CC(C)C)C(N)=O)[C@@H](C)CC)[C@@H](C)CC [PF6, reference compound]
[1]
  cells with downregulated reporter gene (GFP signal below threshold), FACS: approximately 70%
  downregulation of GFP (average, cell lysate fluorescence): highest
[1]; live cells treated with CPP/siGFP complexes
  GFP signal in confocal images: detected GFP signal was the lowest
Murine red blood cells
  hemolytic activity of free peptide (in words): most hemolytic
[2]; CPP/siRNA complexes, comparison between CPPs
  luciferase downregulation efficiency (in words): most efficient peptides even at low MRs
[2]; CPP/siRNA complexes
  Red (%) (reduction, based on remaining luminescence on U87 cells post-treatment): 84%
[2]; HEPES buffer pH 6.0 vs 7.4, siRNA 10 nM
  downregulation of reporter gene on cells in buffer, pH dependence: pH-dependent
[2]; complexes formed at MR30, average, read-out: IC50 (siRNA concentration), luciferase downregulation
  IC50: 10.4 nM
Proteinase K
  stability of complexes to proteinase K (in words): significantly lower stability to longer exposure to enzyme
[3]
  stability of complexes to heparin displacement (in words): only about a half of that in NF55/siRNA complexes
